Here are results for 1 compound from ChEMBL document CHEMBL4765340, “Novel potent antiplatelet thrombotic agent derived from biguanide for ischemic stroke” (Eur J Med Chem, 2020).

The source made the active and inactive calls. The calls are words filed in the database; no cut-off is given here.

The subject of series [1] is Mus musculus. The series can be described thus: Antithrombotic activity in calcein-labelled platelet-mediated ferric chloride-induced arterial injury thrombosis C57BL/6J mouse model assessed as thrombus weight at 200 mg/kg, po administrated twice a day measured upto 7 days (reference value: 3.3 +/- 0.3 mg). The series is classed as functional. As to conditions: time day <=7.

Series [2] can be described thus: Toxicity in C57BL/6J mouse assessed as change in platelet count at 200 mg/kg twice daily for 60 days relative to control. The note with it: in vivo, 1440 h, time 60 day. The series is classed as organism-based.
Series [3] can be described thus: Suppression of P-selectin expression in thrombin-stimulated human platelets by measuring CD62P positive platelets at 0.50 mM after 3 hrs by flow cytometry analysis (reference value: 78.2%). The series is classed as functional. The note with it: Platelet, at 0.5 mM. In general terms: In flow cytometry, cells or beads pass a laser one at a time.
Series [4] deals with Mus musculus. The series can be described thus: Antithrombotic activity in calcein-labelled platelet-mediated ferric chloride-induced arterial injury thrombosis C57BL/6J mouse model assessed as thrombus weight at 300 mg/kg, po administrated twice a day measured upto 7 days (reference value: 3.3 +/- 0.3 mg). The series is classed as functional. As to conditions: time day <=7.

Series [5] has as its system Mus musculus. The series can be described thus: Antithrombotic activity in calcein-labelled platelet-mediated ferric chloride-induced arterial injury thrombosis C57BL/6J mouse model assessed as average time to occlusive thrombosis at 100 mg/kg, po administrated twice a day measured upto 7 days (reference value: 7.9 +/- 0.7 min). The series is classed as functional. As to conditions: time day <=7.

The nature of series [6]: Toxicity in C57BL/6J mouse assessed as change in blood urea nitrogen level at 200 mg/kg twice daily for 60 days relative to control. The note with it: in vivo, 1440 h, time 60 day. The series is classed as organism-based.
The subject of the next series is Platelet. The series can be described thus: Inhibition of thrombin-stimulated human platelet aggregation at 1 mM measured after 3 hrs by scanning electron microscopy (Rvb= 87.2 +/- 4.0%). The series is classed as functional, tissue-based.
A short description of series [7]: Toxicity against C57BL/6J mouse assessed as pancreas morphology at 200 mg/kg twice a day measured after 60 days. The series is classed as organism-based. The note with it: in vivo, 1440 h, time 60 day.
Series [8] deals with Mus musculus. The series can be described thus: Antithrombotic activity in transient focal cerebral ischemic mouse model occlusion induced 60 mins of the right middle cerebral artery followed by reperfussion 23 hrs assessed as activated platelets with red blood cells and loose textured stroke thrombi at 200 mg/kg, po twice daily for 7 days by TTC staining based immuno histochemistry analysis. The series is classed as functional, organism-based. As to conditions: time 7.0 day.

The nature of series [9]: Toxicity against C57BL/6J mouse assessed as heart morphology at 200 mg/kg twice a day measured after 60 days. The series is classed as organism-based. As to conditions: in vivo, 1440 h, time 60 day.

For the compound `CN(C)C(=N)NC(=N)NS(=O)(=O)C(F)(F)F`, the Activity is 0.4 mg in the series with Mus musculus [1]; “Non-Toxic” in series [2]; 0.4 mg with Mus musculus [4]; “Non-Toxic” in series [6]; “Non-Toxic” in series [7]; “Non-Toxic” in [9]. In series [3], this compound came in with a level, % of control at 500 µM of 45.2%. In addition, the Time in the series with Mus musculus [5] is 15.1 min. Further, in the series with Platelet, the inhibition entry is “inactive”. Moreover, the result with Mus musculus [8] was Active.
